# US8106203B2, “Assay methods using chemiluminescent detection of peroxidase” (Lumigen, Inc., priority 2001, dated 2012)
# Legend:
# [1] = molecular target: T1, HRP (Armoracia rusticana, UniProt P00433); test: Comparison of signal intensity (Example 17): maximum signal with HRP; type: biochemical, horseradish; conditions: 3.5×10^−16 moles of HRP
# T1 sequence (P00433 31-338): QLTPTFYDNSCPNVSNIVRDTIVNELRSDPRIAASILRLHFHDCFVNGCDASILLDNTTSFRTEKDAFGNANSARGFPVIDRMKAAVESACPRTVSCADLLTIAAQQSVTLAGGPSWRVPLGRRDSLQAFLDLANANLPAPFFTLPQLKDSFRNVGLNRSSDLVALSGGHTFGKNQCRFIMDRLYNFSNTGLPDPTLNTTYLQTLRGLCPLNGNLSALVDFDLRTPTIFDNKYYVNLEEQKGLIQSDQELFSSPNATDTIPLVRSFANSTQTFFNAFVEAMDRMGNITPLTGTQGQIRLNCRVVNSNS
# Description: (§1) The maximum signal produced by each of compounds 40-51 was compared by reacting a 100 μL aliquot of reagent compositions comprising 0.025 M tris buffer, pH 8, 2.5 mM urea peroxide, 4 mM p-hydroxycinnamic acid, 0.5 mM EDTA, 0.1% Tween 20, and either 1 mM, 0.3 mM, 0.15 mM or 0.05 mM of the test compound with 3.5×10^−16 moles of HRP. Each reagent reached maximum light intensity in 1-3 minutes.
# [2] = molecular target: T1, HRP; test: Stability of working solutions by solution assay; type: physicochemical, horseradish
# Description: Reagent stability of the working solutions of compound 53 and compound 46 was assessed by preparing the working solution by combining 50 μL aliquots of the two component solutions and storing the mixed solutions at 4° C. or room temperature. The working solution contained 0.025 M tris buffer, pH 8, 2.5 mM urea peroxide, 4 mm p-hydroxycinnamic acid, 0.5 mM EDTA, 0.1% Tween 20, and 0.05 mM of the substrate. Chemiluminescent assays were run with 3.5×10^−16 moles of HRP at 25° C. Maximum intensity results were compared to the values obtained with fresh reagent prepared from the individual components stored at 4° C. […] The composition containing compound 53 was unchanged after four months at 4° C., that containing compound 46 was unchanged after 9 months at 4° C.
# [3] = molecular target: T1, HRP; test: Chemiluminescent detection of HRP with compounds 52 and 53; type: biochemical, horseradish; conditions: 3×10^−4 M compound, HRP 1.4×10^−16 to 1.4×10^−21 moles
# Description: Reagent compositions comprising 0.025 M tris buffer, pH 8.0, 2.5 mM urea peroxide, 4 mM p-hydroxycinnamic acid, 0.5 mM EDTA, 0.1% Tween 20 and 3×10^−4 M compound 52 or 53 were tested for production of chemiluminescence by reacting triplicate 100 μL aliquots with 10 μL of HRP in the range 1.4×10^−16 to 1.4×10^−21 moles. […] The relation between peak chemiluminescence intensity and amount of enzyme is depicted in FIG. 8.
# [4] = system: peroxidase; test: Chemiluminescence on reaction with peroxide and a peroxidase (general); type: biochemical; conditions: mixtures of double bond isomers
# Source text: Reaction of ketene dithioacetal compounds of formula I, including those shown above, with peroxide and a peroxidase generate chemiluminescence which rapidly reaches very high intensity. Maximum light emission is achieved in one minute or less and remains constant for several minutes. […] No other known chemiluminescent peroxidase substrate generates high intensity chemiluminescence so rapidly. This kinetic behavior in unexpected and contrasts with the chemiluminescence time profile of structurally related compounds disclosed in the aforementioned U.S. Pat. No. 5,922,558. For example, a compound having the formula:
# [drawing 18] reacted with HRP was disclosed to reach maximum chemiluminescence intensity in 7 min. The ability of the compounds of the present invention to reach a stable maximum light intensity so rapidly makes them more suitable than other chemiluminescent compounds for peroxidase detection in the rapid high throughput assays in demand today.
# Compounds and compositions of the present invention are useful in a method to produce chemiluminescence by reaction with a peroxidase. Reaction of a compound of the invention with a peroxidase and a peroxide in an aqueous buffer solution produces easily detectable visible chemiluminescence. Light intensity reaches a maximum level rapidly at room temperature, typically in about 1 minute. […]
# [5] = molecular target: T1, HRP; test: Comparison of signal intensity (Example 9): chemiluminescence on reaction of reagent with HRP; type: biochemical, horseradish; conditions: 3.5×10^−16 moles of HRP
# Description: Reagent compositions comprising 0.01 M tris buffer, pH 8, 0.5 mM urea peroxide, 0.1 mM p-phenylphenol, […], 0.025% Tween 20, and 5×10^−5 M of each compound in the table below except the compound designated Ref. 1 were tested for production of chemiluminescence by reacting a 100 μL aliquot with 3.5×10^−16 moles of HRP. The reagent formulation for Ref. 1 comprised 0.05 M tris buffer, pH 8.6, 0.25 mM urea peroxide, 0.05 mM p-phenylphenol, 0.5 mM EDTA, 0.0125% Tween 20, and 3.3×10^−4 M Ref. 1. For comparison, data are provided for reference compounds 1 and 2.
# [6] = Solubility in the aqueous formulation; type: physicochemical; conditions: 0.025 M tris pH 8 formulation with 0.1% Tween 20
# [7] = molecular target: T2, HRP-labeled antibody (Armoracia rusticana, UniProt P00433); test: Western blot of β-galactosidase via HRP-labeled antibody on PVDF membrane; type: biochemical
# T2 sequence (P00433 31-338): T1 sequence (P00433 31-338)
# Description: A western blot assay of β-galactosidase as the test antigen was conducted according to the procedure described in U. K. Laemmli, Nature (London), 227, 680 (1970) using a PVDF membrane. β-Galactosidase standards in the range of 5000-5 pg. The detection reagent containing Compound 1 permitted detection to be performed in under 1 minute.
# [8] = molecular target: T1, HRP; test: Chemiluminescent detection of HRP with compound 1; type: biochemical, horseradish
# Description: Reagent compositions comprising 0.01 M tris buffer, pH 7.0, 0.5 mm urea peroxide, 0.1 mM p-phenylphenol, 1 mM EDTA, 0.025% Tween 20 and 5×10^−5 M compound 1 were tested for production of chemiluminescence by reacting triplicate 100 μL aliquots with 10 μL of HRP in the range 1.4×10^−15 to 1.4×10^−20 moles. Light production ensued upon mixing and reached maximum intensity in about 1 min.
# [9] = molecular target: T1, HRP; test: Comparison of signal intensity (Example 10): maximum signal with HRP; type: biochemical, horseradish; conditions: 3×10^−4 M compound, 0.025 M tris pH 8, 2.5 mM urea peroxide, 4 mM p-hydroxycinnamic acid; 3.5×10^−16 moles of HRP
# Description: as §1, with “14, and 27-29” for “40-51”, “3×10^−4 M” for “either 1 mM, 0.3 mM, 0.15 mM or 0.05 mM”, “about 1 minute.” for “1-3 minutes.”
# [10] = 1 mM test compound (Formulation 1.0)
# [11] = 5×10^−5 M compound, 0.01 M tris pH 8, 0.5 mM urea peroxide, 0.1 mM p-phenylphenol, 0.025% Tween 20
compound,measurement,setting,value
CSC(SCCCSCCCS(=O)(=O)[O-])=C1c2ccccc2N(c2ccccc2)c2ccccc21.[Na+] [Compound 54],Signal/Background,[1]; 0.15 mM test compound,2502
CSC(SCCCOCCCS(=O)(=O)[O-])=C1c2ccccc2N(Cc2ccccc2)c2ccccc21.[Na+] [Compound 53],working solution composition after storage,[2]; four months at 4° C.,unchanged
same,reagent performance on storage of working solution,"[2]; up to three weeks at room temperature, 0.05 mM substrate",no deterioration of reagent performance
same,rise of light to maximum intensity,[3],reached maximum intensity rapidly
same,Signal/Background,[1]; 0.15 mM test compound,5742
c1ccc(CSC(SCc2ccccc2)=C2c3ccccc3N(c3ccccc3)c3ccccc32)cc1 [Compound 3],generation of chemiluminescence,[4],"Compounds 3, 4 and 6 were obtained as mixtures of double bond isomers. Each of these compounds generates chemiluminescence in the present invention."
CSC(SC)=C1c2ccccc2N(Cc2ccc(O)cc2)c2ccccc21 [Compound 40],Signal/Background,[1]; [10],4011
CCCCCCCCSC(SCCCS(=O)(=O)[O-])=C1c2ccccc2N(c2ccccc2)c2ccccc21.[Li+] [Compound 13],Signal/Background,[5]; [11],7626
O=S(=O)([O-])CCCOC1CSC(=C2c3ccccc3N(Cc3ccccc3)c3ccccc32)SC1.[Na+] (centres unmarked) [Compound 47],Signal/Background,[1]; [10],7228
CN1c2ccccc2C(=C2Sc3ccccc3S2)c2ccccc21 [Compound 51],solubility in the aqueous formulation,[6],very poorly soluble
same,Signal/Background,[1]; 0.05 mM test compound,4264
O=S(=O)([O-])CCCSC(SCc1ccc(Cl)cc1)=C1c2ccccc2N(Cc2ccccc2)c2ccccc21.[Na+] [Compound 41],Signal/Background,[1]; [10],14000
"CN1c2ccccc2C(=C(OP(=O)([O-])[O-])Sc2ccccc2)c2ccccc21.[Na+].[Na+] [Ref. 1, reference compound]",Signal/Background,"[5]; Ref. 1 formulation: 3.3×10^−4 M, 0.05 M tris pH 8.6, 0.25 mM urea peroxide, 0.05 mM p-phenylphenol",53
same,"chemiluminescence intensity and exposure needed, compared with the compound 1 reagent",[7]; β-galactosidase,lower intensity chemiluminescence and required longer exposures
same,lower abundance bands able to be imaged,[7]; β-galactosidase,not possible to image
"COC(Sc1ccccc1)=C1c2ccccc2N(C)c2ccccc21 [Ref. 2, reference compound]",Signal/Background,[5]; [11],325
CSC(SC)=C1c2ccccc2N(c2ccccc2)c2ccccc21 [Compound 1],Signal/Background,[5]; [11],8060
same,time to reach maximum intensity,"[8]; 5×10^−5 M compound 1, pH 7.0, p-phenylphenol",about 1 min
same,log-log plot of chemiluminescence intensity vs. amount of enzyme,[8]; HRP 1.4×10^−15 to 1.4×10^−20 moles,linear over the entire range tested
same,lower abundance bands able to be imaged,[7]; β-galactosidase,≤ 1 pg
same,time in which detection could be performed,[7]; β-galactosidase standards 5000-5 pg,under 1 minute
O=S(=O)([O-])CCCOCCCN1c2ccccc2C(=C2Sc3ccccc3S2)c2ccccc21.[Na+] [Compound 50],Signal/Background,[1]; 0.3 mM test compound,1651
CSC(SCCCOS(=O)(=O)[O-])=C1c2ccccc2N(Cc2ccccc2)c2ccccc21.[Na+] [Compound 55],Signal/Background,[1]; 0.3 mM test compound,5408
O=S(=O)([O-])CCCSC(SCc1ccccc1)=C1c2ccccc2N(c2ccccc2)c2ccccc21.[Na+] [Compound 42],Signal/Background,[1]; [10],9100
O=S(=O)([O-])CCCOCCCSC(SCCCO)=C1c2ccccc2N(Cc2ccccc2)c2ccccc21.[Na+] [Compound 52],rise of light to maximum intensity,[3],reached maximum intensity rapidly
same,Signal/Background,[1]; 0.15 mM test compound,5840
OC1CSC(=C2c3ccccc3N(c3ccccc3)c3ccccc32)SC1 (centres unmarked) [Compound 45],Signal/Background,[1]; 0.3 mM test compound,2102
CCCCCCCCSC(SC)=C1c2ccccc2N(c2ccccc2)c2ccccc21 [Compound 6],generation of chemiluminescence,[4],"Compounds 3, 4 and 6 were obtained as mixtures of double bond isomers. Each of these compounds generates chemiluminescence in the present invention."
O=S(=O)([O-])CCCSC(SCc1ccccc1)=C1c2ccccc2N(Cc2ccccc2)c2ccccc21.[Na+] [Compound 38],Signal/Background,[9],26000
O=P([O-])([O-])OCCCOC1CSC(=C2c3ccccc3N(Cc3ccccc3)c3ccccc32)SC1.[Na+].[Na+] (centres unmarked) [Compound 48],Signal/Background,[1]; [10],4219
CSC(SCCCS(=O)(=O)[O-])=C1c2ccccc2N(Cc2ccc(Cl)cc2)c2ccccc21.[Na+] [Compound 28],Signal/Background,[9],6717
COc1ccc(CN2c3ccccc3C(=C(SC)SCCCS(=O)(=O)[O-])c3ccccc32)cc1.[Na+] [Compound 29],Signal/Background,[9],6621
CSC(SC)=C1c2ccccc2N(C)c2ccccc21 [Compound 2],Signal/Background,[5]; [11],953
c1ccc(CN2c3ccccc3C(=C3SCCOCCOCCOCCOCCS3)c3ccccc32)cc1 [Compound 49],solubility in the aqueous formulation,[6],very poorly soluble
same,Signal/Background,[1]; 0.05 mM test compound,4853
